# Assay results taken from BindingDB's records for doi:10.1074/jbc.M113.479717 (University of Manchester, 2013).
# What was measured:
# Assay in all cases: Optical Titration Assay
# Details in all cases: pH 7
# [1] = biological target: Bifunctional cytochrome P450/NADPH--P450 reductase [F87V] (Bacillus megaterium, UniProt P14779, F87V)
# Description: (§1) Dissociation constants (Kd values) for binding of the substrates N-palmitoylglycine (NPG) and omeprazole (OMP) to WT and mutant BM3 heme domains were determined by UVvisible absorption titrations using ~1-4 μM protein in 100mMKPi, pH 7.0, at 25 °C (assay buffer) in 1-cm path length quartz cuvettes and as in our previous studies. Spectra were recorded for substrate-free enzymes and following addition of ligands during substrate titrations (typically 800 to 250 nm).
# [2] = biological target: T1, Bifunctional cytochrome P450/NADPH--P450 reductase (Bacillus megaterium, UniProt P14779)
# T1 sequence (P14779 whole entry): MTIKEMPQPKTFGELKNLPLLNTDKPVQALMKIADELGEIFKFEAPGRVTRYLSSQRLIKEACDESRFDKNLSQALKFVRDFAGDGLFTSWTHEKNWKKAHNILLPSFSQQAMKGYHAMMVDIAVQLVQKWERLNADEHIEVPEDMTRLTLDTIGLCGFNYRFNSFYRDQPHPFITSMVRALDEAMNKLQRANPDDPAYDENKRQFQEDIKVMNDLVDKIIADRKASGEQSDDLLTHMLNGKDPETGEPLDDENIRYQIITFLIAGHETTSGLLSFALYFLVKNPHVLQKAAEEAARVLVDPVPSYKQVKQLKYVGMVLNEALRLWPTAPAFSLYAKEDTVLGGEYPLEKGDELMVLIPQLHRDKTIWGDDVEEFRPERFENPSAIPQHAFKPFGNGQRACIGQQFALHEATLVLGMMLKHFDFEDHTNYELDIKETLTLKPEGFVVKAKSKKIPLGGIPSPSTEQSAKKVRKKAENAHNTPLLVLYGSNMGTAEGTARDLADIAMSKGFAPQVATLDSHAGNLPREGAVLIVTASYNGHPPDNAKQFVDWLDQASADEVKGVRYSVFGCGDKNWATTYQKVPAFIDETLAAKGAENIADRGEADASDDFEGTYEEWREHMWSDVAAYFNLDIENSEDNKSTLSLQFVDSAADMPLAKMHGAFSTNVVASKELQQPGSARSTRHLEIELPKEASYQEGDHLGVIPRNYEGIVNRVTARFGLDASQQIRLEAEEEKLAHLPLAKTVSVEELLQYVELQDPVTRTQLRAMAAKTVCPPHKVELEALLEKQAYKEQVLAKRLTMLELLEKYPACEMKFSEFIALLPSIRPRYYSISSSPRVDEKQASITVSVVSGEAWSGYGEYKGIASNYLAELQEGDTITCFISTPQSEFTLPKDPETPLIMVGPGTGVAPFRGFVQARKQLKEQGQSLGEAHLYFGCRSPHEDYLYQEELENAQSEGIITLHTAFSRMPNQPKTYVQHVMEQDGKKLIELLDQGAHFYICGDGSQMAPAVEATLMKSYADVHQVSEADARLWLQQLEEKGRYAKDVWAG
# Description: as §1
# [3] = biological target: Bifunctional cytochrome P450/NADPH--P450 reductase [A82F,F87V] (Bacillus megaterium, UniProt P14779, A82F/F87V)
# Description: as §1
# [4] = biological target: Bifunctional cytochrome P450/NADPH--P450 reductase [A82F] (Bacillus megaterium, UniProt P14779, A82F)
# Description: as §1
# Sequence of Bifunctional cytochrome P450/NADPH--P450 reductase [A82F] (P14779 whole entry A83F): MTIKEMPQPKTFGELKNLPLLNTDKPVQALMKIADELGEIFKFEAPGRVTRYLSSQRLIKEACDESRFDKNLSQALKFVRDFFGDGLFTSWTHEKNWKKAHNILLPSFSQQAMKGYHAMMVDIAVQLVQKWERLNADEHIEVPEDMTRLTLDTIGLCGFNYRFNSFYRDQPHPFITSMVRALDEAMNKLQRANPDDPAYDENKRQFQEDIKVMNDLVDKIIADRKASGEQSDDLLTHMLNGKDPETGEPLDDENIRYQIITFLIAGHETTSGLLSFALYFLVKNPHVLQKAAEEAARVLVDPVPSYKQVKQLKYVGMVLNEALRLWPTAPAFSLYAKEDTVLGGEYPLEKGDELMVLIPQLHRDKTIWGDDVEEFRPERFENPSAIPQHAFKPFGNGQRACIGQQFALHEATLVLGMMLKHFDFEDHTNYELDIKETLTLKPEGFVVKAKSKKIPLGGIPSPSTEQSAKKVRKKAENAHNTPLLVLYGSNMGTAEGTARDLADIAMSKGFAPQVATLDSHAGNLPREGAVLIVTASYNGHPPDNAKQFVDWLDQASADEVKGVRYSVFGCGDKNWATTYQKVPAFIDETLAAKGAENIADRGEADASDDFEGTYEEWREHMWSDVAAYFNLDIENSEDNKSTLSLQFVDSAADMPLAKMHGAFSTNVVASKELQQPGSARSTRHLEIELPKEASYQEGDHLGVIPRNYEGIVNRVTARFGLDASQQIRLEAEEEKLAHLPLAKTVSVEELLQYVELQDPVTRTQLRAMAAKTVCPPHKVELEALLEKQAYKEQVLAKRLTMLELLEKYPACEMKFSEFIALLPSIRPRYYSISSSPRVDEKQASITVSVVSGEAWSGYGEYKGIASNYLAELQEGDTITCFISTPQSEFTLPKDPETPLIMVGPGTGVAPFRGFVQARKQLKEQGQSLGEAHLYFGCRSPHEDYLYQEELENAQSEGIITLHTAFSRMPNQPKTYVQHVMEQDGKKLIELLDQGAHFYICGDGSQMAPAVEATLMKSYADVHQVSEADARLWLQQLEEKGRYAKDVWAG
# Sequence of Bifunctional cytochrome P450/NADPH--P450 reductase [A82F,F87V] (P14779 whole entry A83F/F88V): as the sequence (P14779 whole entry A83F) above, with F88V counted along it
# Sequence of Bifunctional cytochrome P450/NADPH--P450 reductase [F87V] (P14779 whole entry F88V, the tested form may be a part): as the sequence (P14779 whole entry A83F) above, with F83A, F88V counted along it
SMILES,Kd [1] [µM],Kd [2] [µM],Kd [3] [µM],Kd [4] [µM]
CCCCCCCCCCCCCCCC(=O)NCC(=O)O [N-palmitoylglycine (NPG)],0.204,0.082,0.004,0.297
COc1ccc2[nH]c([S+]([O-])Cc3ncc(C)c(OC)c3C)nc2c1 (configuration not stated) [H-168/68],49,–,0.212,1.67
